Measurements: PubChem BioAssay (NCI)
“And” between values parts separate entries of the source, which are not always exact repeats. Identical values can stand only once.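 Assay format: 96-well plates, 48-hour exposure. Here, GI50 denotes the concentration required for 50% inhibition of growth. TGI is the concentration that stops growth completely.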

Key:
Assay in all cases: growth of human tumour cells (NCI), 48 h
A498 renal = test system: A498 renal
CCRF-CEM leukemia = test system: CCRF-CEM leukemia
EKVX NSCLC = test system: EKVX NSCLC
HOP-62 NSCLC = test system: HOP-62 NSCLC
MCF7 breast = test system: MCF7 breast
PC-3 prostate = test system: PC-3 prostate
RPMI-8226 leukemia = test system: RPMI-8226 leukemia
SF-539 CNS = test system: SF-539 CNS
SK-MEL-5 melanoma = test system: SK-MEL-5 melanoma
SW-620 colon = test system: SW-620 colon

Structure (SMILES)	GI50 (A498 renal) [µM]	TGI (A498 renal) [µM]	GI50 (CCRF-CEM leukemia) [µM]	TGI (CCRF-CEM leukemia)	GI50 (EKVX NSCLC) [µM]	TGI (EKVX NSCLC) [µM]	GI50 (HOP-62 NSCLC)	TGI (HOP-62 NSCLC) [µM]	GI50 (MCF7 breast)	TGI (MCF7 breast) [µM]	GI50 (PC-3 prostate) [µM]	TGI (PC-3 prostate) [µM]	GI50 (RPMI-8226 leukemia) [µM]	TGI (RPMI-8226 leukemia) [µM]	GI50 (SF-539 CNS) [µM]	TGI (SF-539 CNS) [µM]	GI50 (SK-MEL-5 melanoma) [µM]	TGI (SK-MEL-5 melanoma) [µM]	GI50 (SW-620 colon) [µM]	TGI (SW-620 colon) [µM]
COC(=O)Nc1nc2ccc(Sc3ccc(NC(=O)Nc4cc(C(F)(F)F)ccc4F)cc3)cc2[nH]1	2.71	10.7	3.3	12.5 µM	4	21.8	3.73 µM	9.56	0.988 µM	5.33	3.38	11.1	7.14	24.1	3.23	7.98	0.95	11.7	1.43	5.52
O=C(NO)C(O)C(O)C(O)C(O)CO (stereo not given)	> 100	> 100	50.6	> 100 µM	> 100	> 100	> 92.5 µM and 68.3 µM	> 100	> 100 µM and 46.4 µM	> 100	> 100	> 100	> 100	> 100	> 100	> 100	> 100	> 100	> 100	> 100
CCOC(=O)C1=C(c2ccccc2)N(Cc2ccccc2)C2(O)C=CC(=O)C3C(=O)N(c4ccccc4)C(=O)C132 (stereo not given)	1.62	3.12	1.53	7.03 µM	2.43	6.51	2.67 µM	6.56	1.29 µM	3.08	2.67	9.32	1.27	4.35	1.91	3.76	1.49	2.93	1.81	3.91
O=C(Nc1ccccc1)Nc1ccccc1CNc1nc(Nc2ccc(OCCN3CCCC3)cc2)ncc1Cl	1.51	8.54	2.02	17.8 µM	7.02	15.4	6.96 µM	21.8	1.69 µM	7.82	6.06	14	1.33	3.6	1.72	6.23	5.27	11.9	4.67	12.7
O=C(CN=Cc1cccs1)CSC(c1ccccc1)c1ccccc1	16.6	45.8	20.8	> 100 µM	26.2	96.9	34 µM	> 100	18.8 µM	52.6	17.5	47.9	12.1	28.7	26.6	71.1	15.6	29	29.8	> 100
O=[N+]([O-])O.[NH-]C1CCCCC1[NH-].[NH-]C1CCCCC1[NH-].[NH-]C1CCCCC1[NH-].[OH-].[OH-].[OH-].[Pt+4].[Pt+4].[Pt+4] (stereo not given)	0.278	35.1	0.193	19.2 µM	30.1	> 100	2.23 µM	> 57.8	0.157 µM	> 45.6	0.756	40.9	0.0311	> 24.2	1.31	> 68.8	0.0363	1	–	> 100
O=[N+]([O-])c1cccc(-c2ncc(-c3ccc(Cl)cc3Cl)[nH]2)c1	6.12	22.6	1.49	4.48 µM	2.15	6.81	9.53 µM	26.8	1.14 µM	3.57	3.69	14.9	1.08	4.68	15.4	29.3	4.59	9.23	1.6	3.16
CC(=O)N[C@@H]1CCC[C@H](C(=O)Nc2cc(-c3cnn4c3CC(C)(C)C4)c(Cl)cn2)C1	< 0.01	0.0313	< 0.01	0.315 µM	0.0197	–	< 0.0113 µM	> 100	< 0.01 µM	40.6	< 0.01	> 100	0.0158	0.0703	< 0.01	0.0187	< 0.01	< 0.0406	< 0.01	> 100
CN1c2ccccc2C(=O)Nc2cnc(Cl)nc21	–	> 100	–	> 100 µM	–	> 100	–	> 100	–	> 100	–	> 100	–	> 100	–	> 100	–	> 100	–	> 100
C=CC[PH+](c1ccccc1)c1ccccc1.C=CC[PH+](c1ccccc1)c1ccccc1.[Cl][Pt][Cl]	16.5	57.8	3.6	> 100 µM	13	27.4	18.5 µM	40.5	5.62 µM	24.4	7.11	24.6	3.18	13.6	13.2	26.3	15.8	30.6	3.46	13.6
COc1cc(/C=C\c2cccnc2Nc2ccccc2)cc(OC)c1OC	2.64	36.5	7.08	> 100 µM	7.55	> 100	12.1 µM	> 100	3.97 µM	44.7	7.81	75.1	6.83	34.8	12.2	> 100	4.17	16.4	4.81	> 100
CCCCCCN(CCCCCC)CC(O)c1cccc2ccc(Cl)cc12 (stereo not given)	10.4	22.3	11.4	31.7 µM	10.5	25.5	3.71 µM	14.5	7.52 µM	20.3	9.59	25	5.2	22.4	1.58	4.95	2.12	5.17	3.82	15
COc1cc(C(=O)/C=C/c2c(C(F)(F)F)nc3sccn23)cc(OC)c1OC	1.89	3.42	1.24	8.34 µM	2.72	10.7	1.93 µM	3.92	1.25 µM	3.33	2.66	8.69	1.08	4.53	1.55	2.96	1.59	2.96	1.67	3.56
O=C(CC(C(=O)O)N1CCOCC1)c1ccccc1 (stereo not given)	–	63	–	15 µM	–	38.4	–	86.9	–	31.2	–	36	–	42.1	–	45.7	–	43	–	44.1
CC(=O)C1=C(O)/C(=C\c2ccco2)OC1=O	–	> 10	–	> 10 µM	–	> 10	–	> 10	–	> 10	–	> 10	–	> 10	–	> 10	–	> 10	–	> 10
CCc1nc(N)nc(N)c1-c1ccc([N+](=O)[O-])c(Cl)c1	–	> 100	–	> 100 µM	–	> 100	–	> 100	–	> 100	–	> 100	–	> 100	–	> 94.4	–	> 82.5	–	> 100
CCCCCCCCCCCCCCCC(=O)OCC1OC(n2ccc(N)nc2=O)C(O)C1O (stereo not given)	–	> 100	–	8.85 µM	–	> 100	–	> 66.6	–	> 100	–	> 100	–	> 100	–	> 100	–	> 100	–	> 100
CCNC(=O)Oc1ccc(/C(=C(\C)c2ccc(Cl)cc2)c2ccc(OCCN3CCCCC3)cc2)cc1	13.7	27	3.26	11.8 µM	6.14	21.9	4.12 µM	15.4	0.484 µM	8.06	3.38	11.3	2.31	5.27	1.81	3.59	1.79	3.17	2.2	4.97
O=c1[nH]c2cc(O)ccc2n2cc3c(F)cccc3c12	3.76	> 100	2.68	> 100 µM	4.69	> 100	0.847 µM	> 100	0.936 µM	> 100	4.54	> 100	4.38	> 100	1.3	> 100	0.348	> 100	0.477	> 100
COc1cc(C2c3cc4c(cc3[C@@H](Nc3cccc(O)c3)C3COC(=O)[C@H]23)OCO4)cc(OC)c1O (stereo not given in full)	0.86	5.9	0.237	0.973 µM and 7.66 µM	–	15	0.459 µM	4.24	–	28.4	–	15.4	0.45	9.31	0.482	4.53	0.526	6.45	0.77	41
